Test results from patent publication US20260258050A1, “IMMUNOMODULATOR” (HITGEN INC., priority 2023, published 2026).

These compounds were tested against T1, Human IL-17AF (Homo sapiens, UniProt Q16552+Q96PD4) (assay: IL-17AF ELISA (competitive ELISA, IL-17AF/IL-17Ra receptor-ligand binding)). Settings: human IL-17AF coated plate, human IL-17Ra, read-out: IC50, inhibitory activity of compounds on human IL-17AF.
T1 construct: purchased Sino Biological Inc. CT047-H08H
T1 sequence (Q16552 24-155): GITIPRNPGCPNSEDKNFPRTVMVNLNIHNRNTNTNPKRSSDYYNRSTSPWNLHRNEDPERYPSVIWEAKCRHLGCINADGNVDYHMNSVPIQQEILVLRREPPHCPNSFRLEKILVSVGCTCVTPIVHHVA
T1 sequence (Q96PD4 31-163): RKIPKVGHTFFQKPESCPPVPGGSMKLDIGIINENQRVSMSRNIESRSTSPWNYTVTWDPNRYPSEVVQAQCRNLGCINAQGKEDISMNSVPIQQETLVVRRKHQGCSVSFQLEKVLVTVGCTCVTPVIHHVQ
Description: Experiment Example 2 IL-17AF ELISA
The inhibitory effects of human IL-17AF inhibitors on receptor-ligand binding were quantitatively determined by a competitive ELISA.
The ELISA was performed through the following steps.
Human IL-17AF (Sino Biological Inc., Cat #CT047-H08H) was diluted with coating buffer (50 mM PBS, pH 7.4) to reach a concentration of 0.625 μg/ml. 100 μL of the resulting solution was added to each well of a 96-well plate, and the plate was incubated at 37° C. for 30 min. In the blank group, 100 μL of coating buffer was added instead of the IL-17AF solution.
The plate was washed four times with 10 mM PBST (pH 7.4). 200 μL was used per well for each wash. After the final wash, the plate was tapped dry on absorbent paper.
Fresh 5% (w/v) skim milk solution was prepared before the experiment. For example, 5 grams of skim milk powder (Bio-Rad, Cat #170-6404) was completely dissolved in 100 mL of 10 mM PBST. 200 μL of the 5% (w/v) skim milk solution was added to each well, and the plate was incubated on a shaker at 25° C. for 30 min.
(S4) Preparation of 100× to-be-Tested Compound Solutions
During step (S3), the to-be-tested compound solutions were prepared. Each powdered compound was dissolved in dimethyl sulfoxide (DMSO) to reach a stock concentration of 10 mM. The to-be-tested compound solutions were then serially diluted four-fold with DMSO to obtain nine concentrations ranging from […].
(S6) Pre-Incubation of IL-17AF with to-be-Tested Compound Solutions
89 μL of PBST and 1 μL of each of the to-be-tested compound solutions were added to each well and mixed. The plate was pre-incubated at 25° C. for 10 min. In the blank group and the control group, 1 μL of DMSO was added instead of the to-be-tested compound solutions.
(S7) Incubation with Human IL-17Ra
10 μL of 100 nM IL-17Ra (Sino Biological Inc., Cat #10895-H03H) was added to each well, followed by incubation on a shaker at 25° C. for 30 min. The receptor solution was prepared in 10 mM PBST.
(S9) Incubation with Horseradish Peroxidase-Conjugated Antibody
100 μL of mouse anti-Fc tag HRP-conjugated antibody (Sino Biological Inc., Cat #10702-MM01T-H) was added to each well. The plate was incubated on a shaker at 25° C. for 30 min. The antibody was diluted with 5% (w/v) skim milk solution at 1:5,000 (v/v).
100 μL of TMB substrate solution (BD, Cat #555214) was added to each well. Substrate A and substrate B were freshly mixed at a volume ratio of 1:1 before use. The plate was incubated in the dark at 25° C. for 5-15 min.
(S12) Termination and Detection
The color reaction was terminated by addition of 2.5 M HCl. Absorbance was measured at 450 nm using a BMG PHERStar microplate reader.
(S13) Calculation of Half-Maximal Inhibitory Concentration (IC50)
The relative percent residual activity at each compound concentration was calculated according to Equation 1. The IC50 value of each test compound was then calculated in GraphPad 6 using the equation for log(inhibitor) versus normalized response with variable slope, as shown in Equation 2.
relative percent residual activity (%)=[(absorbance of sample−absorbance of blank group)/(absorbance of control group−absorbance of blank group)]%. Equation 1: […]
The compounds prepared in the Examples were tested for IL-17AF inhibitory activity according to the above method.

| IC50 | SMILES |
| --- | --- |
| 100 to 500 nM | Cc1[nH]nc2c1-c1cc(F)c(NC(=O)[C@@H](NC(=O)c3ccnn3C(C)C)C(C3CC3)C3CC3)cc1CN(C(C)C(F)(F)F)C(=O)C2 (mixture of isomers) [compound 173] |
| 100 to 500 nM | Cc1[nH]nc2c1-c1cc(F)c(NC(=O)[C@@H](NC(=O)c3ccnn3C(C)C3CC3)C(C3CC3)C3CC3)cc1COCC2 (single isomer, unassigned) [compound 41a] |
| ≤ 100 nM | Cc1[nH]nc2c1-c1cc(F)c(NC(=O)[C@@H](NC(=O)c3ccnn3C(C)C3CC3)C(C3CC3)C3CC3)cc1COCC2 (single isomer, unassigned) [compound 41b] |
| ≤ 100 nM | Cc1[nH]nc2c1-c1cc(F)c(NC(=O)[C@@H](NC(=O)c3ccnn3C(C)CF)C(C3CC3)C3CC3)cc1COCC2 (single isomer, unassigned) [compound 42a] |
| ≤ 100 nM | Cc1[nH]nc2c1-c1cc(F)c(NC(=O)[C@@H](NC(=O)c3ccnn3C(C)CF)C(C3CC3)C3CC3)cc1COCC2 (single isomer, unassigned) [compound 42b] |
| 100 to 500 nM | Cc1[nH]nc2c1-c1cc(F)c(NC(=O)[C@@H](NC(=O)c3ccnn3C(C)C)C(C3CC3)C3CC3)cc1CN(C(C)C(F)(F)F)C(=O)C2 (single isomer, unassigned) [compound 186a] |
| 100 to 500 nM | Cc1[nH]nc2c1-c1cnc(NC(=O)[C@@H](NC(=O)c3ccnn3C(C)C3CC3)C(C3CC3)C3CC3)cc1COCC2 (single isomer, unassigned) [compound 188a] |
| 100 to 500 nM | Cc1[nH]nc2c1-c1cnc(NC(=O)[C@@H](NC(=O)c3ccnn3C(C)C3CC3)C(C3CC3)C3CC3)cc1COCC2 (single isomer, unassigned) [compound 188b] |
| 100 to 500 nM | Cc1[nH]nc2c1-c1cnc(NC(=O)[C@@H](NC(=O)c3ccnn3C(C)CF)C(C3CC3)C3CC3)cc1COCC2 (single isomer, unassigned) [compound 189a] |
| 100 to 500 nM | Cc1[nH]nc2c1-c1cnc(NC(=O)[C@@H](NC(=O)c3ccnn3C(C)CF)C(C3CC3)C3CC3)cc1COCC2 (single isomer, unassigned) [compound 189b] |
| ≤ 100 nM | Cc1[nH]nc2c1-c1ccc(NC(=O)[C@@H](NC(=O)c3ccnn3C)C(C3CC3)C3CC3)cc1COCC2 [compound 2] |
| ≤ 100 nM | Cc1[nH]nc2c1-c1cc(F)c(NC(=O)[C@@H](NC(=O)c3ccnn3C(C)C)C(C3CC3)C3CC3)cc1COCC2 [compound 15] |
| 100 to 500 nM | CCn1nccc1C(=O)N[C@H](C(=O)Nc1cc2c(cc1F)-c1c(n[nH]c1C)CCOC2)C(C1CC1)C1CC1 [compound 16] |
| 100 to 500 nM | Cc1[nH]nc2c1-c1cc(F)c(NC(=O)[C@@H](NC(=O)c3ccnn3C)C(C3CC3)C3CC3)cc1COCC2 [compound 17] |
| ≤ 100 nM | Cc1[nH]nc2c1-c1ccc(NC(=O)[C@@H](NC(=O)c3ccnn3C(C)C)C(C3CC3)C3CC3)cc1CN(C)C(=O)C2 [compound 22] |
| ≤ 100 nM | CCn1nccc1C(=O)N[C@H](C(=O)Nc1ccc2c(c1)CN(C)C(=O)Cc1n[nH]c(C)c1-2)C(C1CC1)C1CC1 [compound 23] |
| 100 to 500 nM | Cc1[nH]nc2c1-c1ccc(NC(=O)[C@@H](NC(=O)c3ccnn3C(C)C)C(C3CC3)C3CC3)cc1CNC(=O)C2 [compound 27] |
| ≤ 100 nM | CCn1nccc1C(=O)N[C@H](C(=O)Nc1ccc2c(c1)CNC(=O)Cc1n[nH]c(C)c1-2)C(C1CC1)C1CC1 [compound 28] |
| ≤ 100 nM | CCn1nccc1C(=O)N[C@H](C(=O)Nc1cc2c(cc1F)-c1c(n[nH]c1C)CCOC2)[C@H]1CC[C@H](C)CC1 [compound 46] |
| 100 to 500 nM | Cc1[nH]nc2c1-c1cc(F)c(NC(=O)[C@@H](NC(=O)c3ccnn3C(C)C)C3CCCCC3)cc1COCC2 [compound 48] |
| 100 to 500 nM | [2H]C([2H])([2H])C([2H])(n1nccc1C(=O)N[C@H](C(=O)Nc1ccc2c(c1)COCCc1n[nH]c(C)c1-2)C(C1CC1)C1CC1)C([2H])([2H])[2H] [compound 52] |

| IC50 | SMILES |
| --- | --- |
| ≤ 100 nM | [2H]C([2H])([2H])C([2H])(n1nccc1C(=O)N[C@H](C(=O)Nc1cc2c(cn1)-c1c(n[nH]c1C)CCOC2)C(C1CC1)C1CC1)C([2H])([2H])[2H] [compound 54] |
| ≤ 100 nM | COCCCn1nccc1C(=O)N[C@H](C(=O)Nc1cc2c(cc1F)-c1c(n[nH]c1C)CCOC2)C(C1CC1)C1CC1 [compound 58] |
| 100 to 500 nM | Cc1[nH]nc2c1-c1cc(F)c(NC(=O)[C@@H](NC(=O)c3ccnn3CC3CC3)C(C3CC3)C3CC3)cc1COCC2 [compound 59] |
| ≤ 100 nM | Cc1[nH]nc2c1-c1cc(F)c(NC(=O)[C@@H](NC(=O)c3ccnn3CC3CCC3)C(C3CC3)C3CC3)cc1COCC2 [compound 60] |
| ≤ 100 nM | CSCCn1nccc1C(=O)N[C@H](C(=O)Nc1cc2c(cc1F)-c1c(n[nH]c1C)CCOC2)C(C1CC1)C1CC1 [compound 61] |
| ≤ 100 nM | CCCn1nccc1C(=O)N[C@H](C(=O)Nc1cc2c(cc1F)-c1c(n[nH]c1C)CCOC2)C(C1CC1)C1CC1 [compound 62] |
| ≤ 100 nM | Cc1[nH]nc2c1-c1cc(F)c(NC(=O)[C@@H](NC(=O)c3ccnn3CCC(F)F)C(C3CC3)C3CC3)cc1COCC2 [compound 65] |
| ≤ 100 nM | [2H]C([2H])(C1CC1)n1nccc1C(=O)N[C@H](C(=O)Nc1cc2c(cc1F)-c1c(n[nH]c1C)CCOC2)C(C1CC1)C1CC1 [compound 76] |
| ≤ 100 nM | Cc1[nH]nc2c1-c1cc(F)c(NC(=O)[C@@H](NC(=O)c3ccnn3CCC(O)C(F)(F)F)C(C3CC3)C3CC3)cc1COCC2 (some centres unmarked) [compound 81] |
| 100 to 500 nM | Cc1[nH]nc2c1-c1cc(F)c(NC(=O)[C@@H](NC(=O)c3ccnn3CCCC(F)(F)F)C(C3CC3)C3CC3)cc1COCC2 [compound 84] |
| ≤ 100 nM | Cc1[nH]nc2c1-c1cc(F)c(NC(=O)[C@@H](NC(=O)c3ccnn3CCCF)C(C3CC3)C3CC3)cc1COCC2 [compound 86] |
| 100 to 500 nM | Cc1[nH]nc2c1-c1cc(F)c(NC(=O)[C@@H](NC(=O)c3ccnn3CC(C)(F)F)C(C3CC3)C3CC3)cc1COCC2 [compound 87] |
| 100 to 500 nM | Cc1[nH]nc2c1-c1cc(F)c(NC(=O)[C@@H](NC(=O)c3ccnn3CCC(F)(F)F)C(C3CC3)C3CC3)cc1COCC2 [compound 88] |
| 100 to 500 nM | [2H]C([2H])([2H])C([2H])(n1nccc1C(=O)N[C@H](C(=O)Nc1cc2c(cc1F)-c1c(n[nH]c1C)CCOC2)C(C1CC1)C1CC1)C([2H])([2H])[2H] [compound 89] |
| 100 to 500 nM | [2H]C([2H])([2H])C([2H])([2H])n1nccc1C(=O)N[C@H](C(=O)Nc1cc2c(cc1F)-c1c(n[nH]c1C)CCOC2)C(C1CC1)C1CC1 [compound 90] |
| 100 to 500 nM | Cc1[nH]nc2c1-c1cc(F)c(NC(=O)[C@@H](NC(=O)c3ccnn3CCOC(C)C)C(C3CC3)C3CC3)cc1COCC2 [compound 98] |
| 100 to 500 nM | COCC(COC)n1nccc1C(=O)N[C@H](C(=O)Nc1cc2c(cc1F)-c1c(n[nH]c1C)CCOC2)C(C1CC1)C1CC1 [compound 99] |
| ≤ 100 nM | CCOCCn1nccc1C(=O)N[C@H](C(=O)Nc1cc2c(cc1F)-c1c(n[nH]c1C)CCOC2)C(C1CC1)C1CC1 [compound 100] |
| ≤ 100 nM | Cc1[nH]nc2c1-c1cc(F)c(NC(=O)[C@@H](NC(=O)c3ccnn3C[C@@H]3C[C@H]3F)C(C3CC3)C3CC3)cc1COCC2 [compound 101] |
| 100 to 500 nM | Cc1[nH]nc2c1-c1cc(F)c(NC(=O)[C@@H](NC(=O)c3ccnn3CCOC3CC3)C(C3CC3)C3CC3)cc1COCC2 [compound 102] |
